Measured values reported in US11207385B2, “Melanocortins and methods of use thereof” (Aequus Biopharma, Inc., priority 2015, dated 2021).
Square brackets hold non-standard residues; d marks the D form. Ends that are not written are not given here. Nle = CCCC[C@H](N)C(=O)O

Key:
MCR2 = target: T1, MCR2 (Homo sapiens, UniProt Q01718); assay: cAMP production (LANCE cAMP assay) in CHO-MCR2 cells; assay type: cell-based
T1 construct: expressed in transfected cells; host or cells: CHO (CHO-MCR2)
Text: The manufacturer's recommended protocol was followed.

MCR4 = target: T2, MCR4 (Homo sapiens, UniProt P32245); assay: cAMP production (LANCE cAMP assay) in CHO-MCR4 cells; assay type: cell-based; details: Cell Pool B (partially enriched for MCR expression)
T2 construct: expressed in transfected cells; host or cells: CHO (CHO-MCR4)
Method: MCR stimulation in response to polypeptides added to cell culture media was measured by cAMP production via LANCE cAMP assay (Perkin Elmer cat #AD0263).
The manufacturer's recommended protocol was followed. […] To each well was added 5 uL of cell suspension (10,000 CHO-MCR cells per well, with Alexa-labeled antibodies). The mixtures were incubated for 30 minutes at room temperature. Then, to each well was added 10 uL of Detection Mix. The mixtures were incubated for 120 minutes at room temperature. […] This process was repeated for each of CHO-MCR1, CHO-MCR2, CHO-MCR3, CHO-MCR4 and CHO-MCR5 cells.

plasma corticosterone = assay: Steroidogenic effects: corticosterone response in healthy mice (ELISA); assay type: in vivo, Balb/c mice; details: for Mean corticosterone: plasma 1 h after dosing
Method: Compositions described herein were administered to Balb/c mice to determine the half-maximal effective concentrations for induction of corticosteroids in healthy mice. Balb/c mice were divided into 13 groups of 4 animals each (Groups 1-13), and each animal was administered a composition at a dosage as indicated in Table 5.
Each animal was injected subcutaneously at 0.2 ml/mouse as in Table 5. One hour after vehicle or test compositions were administered, the mice were anesthetized and exsanguinated into pre-chilled EDTA-treated microtainer tubes (Becton-Dickinson). The whole blood was processed to plasma and assayed by ELISA for corticosterone (Enzo Life Sciences).

[1] = test system: murine models of gout (MSU-injected air pouch); assay: Murine air pouch model of gout, neutrophil counts and IL-1β in exudate (Example 6); assay type: in vivo, Balb/c mice; details: 3 and 10 nmol/mouse sc 1 h before MSU
Method: An air pouch was formed by injecting 6 mL of sterile air using a syringe filter with a 0.22 micron air filter and 23-gauge needle subcutaneously into a shaved skin site on the back of male Balb/c mice (age 6-8 weeks) on Day 0. The wound result from the pouch was allowed to heal for 3 days without any intervention. The pouch was then re-inflated with 3 mL of sterile air on Day 3. Three days after re-inflation on Day 6, compositions described herein were administered via subcutaneous injection 1 hour prior to the administration of 30 mg monosodium urate crystals (MSU) directly into the air pouch to induce an inflammatory response. Four hours after injection of MSU, mice were anesthetized and exsanguinated. Exudate from the air pouch was collected by lavaging the air pouch of each animal with 3 ml of sterile PBS containing 10 U/ml heparin. Analyses performed on exudates include determining neutrophil counts and IL-1β cytokine concentrations. […] 10 • 3) NDP-α-MSH-linker-linker-ACTH1-24, SEQ ID NO. 23 • 4) ACTH1-24-linker-linker-NDP-α-MSH, SEQ ID NO. 26
SEQ ID NOS. […] SEQ ID NO. 23 and SEQ ID NO. […] 10 in reducing neutrophil counts and IL-1β cytokine concentrations in collected exudate, and the arrangement of SEQ ID NO. […] 23.

[2] = Cell Pool A (partially enriched for MCR expression)
[3] = Cell Pool B (partially enriched for MCR expression)

T2 sequence (P32245 whole entry): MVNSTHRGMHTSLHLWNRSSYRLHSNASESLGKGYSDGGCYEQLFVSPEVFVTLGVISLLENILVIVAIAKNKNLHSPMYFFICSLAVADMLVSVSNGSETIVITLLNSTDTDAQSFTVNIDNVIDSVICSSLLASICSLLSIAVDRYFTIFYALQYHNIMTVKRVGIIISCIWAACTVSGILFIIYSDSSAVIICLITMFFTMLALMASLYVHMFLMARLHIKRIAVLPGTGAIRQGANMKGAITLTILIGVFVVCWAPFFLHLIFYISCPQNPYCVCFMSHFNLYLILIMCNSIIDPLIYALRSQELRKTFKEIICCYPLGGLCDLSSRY
T1 sequence (Q01718 whole entry): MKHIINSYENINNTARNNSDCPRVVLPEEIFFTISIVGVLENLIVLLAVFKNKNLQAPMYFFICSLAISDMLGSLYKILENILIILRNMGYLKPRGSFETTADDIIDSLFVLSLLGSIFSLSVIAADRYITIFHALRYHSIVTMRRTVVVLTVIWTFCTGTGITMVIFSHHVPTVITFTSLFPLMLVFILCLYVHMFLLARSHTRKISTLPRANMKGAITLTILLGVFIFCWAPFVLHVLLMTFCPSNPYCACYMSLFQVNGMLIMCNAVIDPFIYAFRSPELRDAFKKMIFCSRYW
T1 sequence (Q8TCY5 whole entry partner): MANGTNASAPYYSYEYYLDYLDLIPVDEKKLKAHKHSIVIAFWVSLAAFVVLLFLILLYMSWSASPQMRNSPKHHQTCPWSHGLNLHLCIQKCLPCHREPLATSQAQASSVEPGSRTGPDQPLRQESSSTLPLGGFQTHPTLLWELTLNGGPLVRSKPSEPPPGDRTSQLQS

YVMGHFRWDRFGSYSMEHFRWGKPVGKKRRPVKVYP [compound 15]
EC50 (MCR2; [2]): 5 nM

SYSMEHFRWGKPVGKKRRPVKVYPPLPEGGPEPRSDGAKPGPREGKRSYS[Nle]EH[dF]RWGKPV [compound 39]
EC50 (MCR2; [3]): 0.18 nM
EC50 (MCR4): 1.6 nM

SYSMEHFRWGKPVGKKRRPVKVYPELTGQRLREGDGPDGPADDGAGASYSMEHFRWGKPV [compound 43]
EC50 (MCR2; [3]): 0.18 nM
EC50 (MCR4): > 20 nM

CSCC[C@H](NC(=O)[C@H](CO)NC(=O)[C@H](Cc1ccc(O)cc1)NC(=O)[C@@H](N)CO)C(=O)N[C@@H](CCC(=O)O)C(=O)N[C@@H](Cc1c[nH]cn1)C(=O)N[C@@H](Cc1ccccc1)C(=O)N[C@@H](CCCNC(=N)N)C(=O)N[C@@H](Cc1c[nH]c2ccccc12)C(=O)NCC(=O)N[C@@H](CCCCN)C(=O)N1CCC[C@H]1C(=O)N[C@H](C(N)=O)C(C)C [compound 11]
EC50 (MCR2; Cell Pool C (optimized cell bank)): > 100 nM

YVMGHFRWDRFGKRSYSMEHFRWGKPVGKKRRPVKVYP [compound 1]
EC50 (MCR2; [2]): 26 nM

YVMGHFRWDRFGRRNSSSSGSSGAGQKR [compound 9]
EC50 (MCR2; [3]): > 100 nM
EC50 (MCR4): > 100 nM

YVMGHFRWDRFGRRNSSSSGSSGAGQSYSMEHFRWGKPVGKKRRPVKVYP [compound 14]
EC50 (MCR2; [2]): > 100 nM

CCCC[C@H](NC(=O)[C@H](CO)NC(=O)[C@H](Cc1ccc(O)cc1)NC(=O)[C@H](CO)NC(=O)[C@H](CO)NC(=O)CNC(=O)CNC(=O)CNC(=O)CNC(=O)[C@H](CO)NC(=O)CNC(=O)CNC(=O)CNC(=O)CNC(=O)[C@@H]1CCCN1C(=O)[C@H](Cc1ccc(O)cc1)NC(=O)[C@@H](NC(=O)[C@H](CCCCN)NC(=O)[C@@H](NC(=O)[C@@H]1CCCN1C(=O)[C@H](CCCNC(=N)N)NC(=O)[C@H](CCCNC(=N)N)NC(=O)[C@H](CCCCN)NC(=O)[C@H](CCCCN)NC(=O)CNC(=O)[C@@H](NC(=O)[C@@H]1CCCN1C(=O)[C@H](CCCCN)NC(=O)CNC(=O)[C@H](Cc1c[nH]c2ccccc12)NC(=O)[C@H](CCCNC(=N)N)NC(=O)[C@H](Cc1ccccc1)NC(=O)[C@H](Cc1c[nH]cn1)NC(=O)[C@H](CCC(=O)O)NC(=O)[C@H](CCSC)NC(=O)[C@H](CO)NC(=O)[C@H](Cc1ccc(O)cc1)NC(=O)[C@@H](N)CO)C(C)C)C(C)C)C(C)C)C(=O)N[C@@H](CCC(=O)O)C(=O)N[C@@H](Cc1c[nH]cn1)C(=O)N[C@H](Cc1ccccc1)C(=O)N[C@@H](CCCNC(=N)N)C(=O)N[C@@H](Cc1c[nH]c2ccccc12)C(=O)NCC(=O)N[C@@H](CCCCN)C(=O)N1CCC[C@H]1C(=O)N[C@H](C(=O)O)C(C)C [SEQ ID NO. 26, ACTH1-24-linker-linker-NDP-α-MSH]
Fold change over baseline (corticosterone) (plasma corticosterone; 0.003 nmol/mouse sc): 0.8
Mean corticosterone (plasma corticosterone; 0.003 nmol/mouse sc): 863553 pg/mL
Fold change over baseline (corticosterone) (plasma corticosterone; 0.03 nmol/mouse sc): 1.0
Mean corticosterone (plasma corticosterone; 0.03 nmol/mouse sc): 116070 pg/mL
Fold change over baseline (corticosterone) (plasma corticosterone; 0.3 nmol/mouse sc): 1.8
Mean corticosterone (plasma corticosterone; 0.3 nmol/mouse sc): 149581 pg/mL
Fold change over baseline (corticosterone) (plasma corticosterone; 1.0 nmol/mouse sc): 3.3
Mean corticosterone (plasma corticosterone; 1.0 nmol/mouse sc): 264845 pg/mL
Fold change over baseline (corticosterone) (plasma corticosterone; 3.0 nmol/mouse sc): 3.4
Mean corticosterone (plasma corticosterone; 3.0 nmol/mouse sc): 488734 pg/mL
Fold change over baseline (corticosterone) (plasma corticosterone; 10.0 nmol/mouse sc): 4.4
Mean corticosterone (plasma corticosterone; 10.0 nmol/mouse sc): 514583 pg/mL
effect on plasma corticosterone (plasma corticosterone; 0.015, 0.15, and 1.5 μg/mouse sc): no significant effect
reduction in plasma corticosterone levels at equally active dose levels (plasma corticosterone; 3 nanomole SEQ ID NO. 26 versus 10 nanomole SEQ ID NO. 10, healthy mice): 40%
plasma corticosterone levels (significantly increased, not different from each other) (plasma corticosterone; 5.2-51.5 μg/mouse sc): ~500 ng/mL
plasma corticosterone after a single subcutaneous injection (dose response, words) (plasma corticosterone; single sc injection 0.2 ml/mouse, FIG. 14): dose-dependent increase in plasma corticosterone

SYSMEHFRWGKPVGKKRRPVKVYPELTGQRLREGDGPDGPADDGAGASYS[Nle]EH[dF]RWGKPV [compound 40]
EC50 (MCR2; [3]): 0.15 nM

NDP-α-MSH-linker-linker-ACTH1-24 (Ac-SYS[Nle]EH[dF]RWGKPVGGGGSGGGGSSYSMEHFRWGKPVGKKRRPVKVYP) [SEQ ID NO. 23]
reducing neutrophil counts in collected exudate (comparison in words) ([1]; FIG. 8): more active than SEQ ID NO. 10
reducing IL-1β cytokine concentrations in collected exudate (comparison in words) ([1]; FIG. 9): more active than SEQ ID NO. 10

SYSMEHFRWGKPVGKKRRPVKVYPPLPEGGPEPRSDGAKPGPREGKRSYSMEHFRWGKPV [compound 42]
EC50 (MCR2; [3]): 0.15 nM
EC50 (MCR4): > 20 nM
